Data from article PMC4355590, “A Kinetic Study of the Main Guaco Metabolites Using Syrup Formulation and the Identification of an Alternative Route of Coumarin Metabolism in Humans” (PLoS ONE, 2015).
Values joined by “and” are separate entries in the source; they are usually repeats but may differ in a detail not shown here. Identical values can stand only once. Like-named read-outs stand apart in the source and are kept apart here. Marks after values point to notes of the source that are not given here.

How the values were obtained:
[1] = Pharmacokinetic study: volunteers orally received 60 mL of guaco syrup spiked with 1500 mg of COU, plasma by HPLC-MS/MS; format: in vivo, human
Description: The weight ranged from 63 to 88 kg and the height from 1.65 to 1.80 m. The volunteers were submitted to the medical consultations and clinical analyses before their participation in the study. Only healthy volunteers (normal values of blood pressure and renal, hepatic, biochemical and hematological parameters) were eligible to participate in the study. […] The volunteers were informed about all the procedures and possible risks related to the study. All the volunteers provided written informed consent to participate in the study. […] All the volunteers fasted for 8 h prior to the administration of guaco syrup and blood collection. […] The anticoagulant used was tetrasodium edetate. […] The pharmacokinetic analysis was performed using a non-compartmental model, considering an extravascular administration route and using WinNonlin Professional software, version 5.3. The relationships among the areas under the curves (r areas = AUC0-t/AUC0-inf), were used to confirm the suitability of the experimental design. […] All the frozen (-40°C) human plasma samples from the volunteers were thawed at room temperature, and a 200 μL aliquot was transferred into 2 mL plastic centrifuge tubes. The analytes were extracted as follows. The 200 μL aliquots of thawed samples were spiked with 50 μL of acetonitrile/water (70:30 v/v) and 50 μL of the working IS solution to obtain a final concentration of 500 ng/mL of 6-methylcoumarin. The spiked samples were vortexed for 2 min, and a 1.5 mL aliquot of TBME was added to the tube. The samples were vortexed for 2 min and then submitted to centrifugation for 10 min (14000 rpm, -5°C). A 1.2 mL aliquot of each sample supernatant was transferred to a new plastic centrifuge tube, and TBME was evaporated at 40°C in a sample concentrator (CentriVap Labconco, Kansas City, EUA). The remaining samples were resuspended in 200 μL of acetonitrile/water (70:30 v/v) using a vortex mixer for 3 min. The 200 μL aliquots of the thawed samples were spiked with 50 μL of acetonitrile/water (70:30 v/v) and 50 μL of the working IS solution to obtain a final concentration of 500 ng/mL of prednisone (IS) and 1000 ng/mL of isoferulic acid (IS). The spiked samples were vortexed for 2 min, and a 1.5 mL of acetonitrile was added to the tube. The samples were vortexed for 2 min and then were submitted to centrifugation for 10 min (14000 rpm, -5°C). Each sample supernatant was transferred to a new plastic centrifuge tube, and acetonitrile was evaporated in a sample concentrator (40°C). The samples were resuspended in 200 μL of acetonitrile/water (70:30 v/v) using a vortex mixer for 3 min. […] The HPLC was connected to a CTC Sample Manager (Model 2777, Waters Corporation, Milford, USA) that was operated at room temperature. Acetonitrile and methanol were used as wash solvents. The HPLC system was coupled to an Applied Biosystems MDS Sciex API 3200 Triple Quadrupole Mass Spectrometer (Toronto, Canada), equipped with a Harvard 22 Dual Model syringe pump (Harvard Apparatus, South Natick, USA) and an electrospray ionization (ESI) source. […] For the positive ion mode, the mobile phase consisted of acetonitrile/water/formic acid (70:30:0.05 v/v/v) at an elution rate of 200 μL/min in an isocratic system. For the negative ion mode, the mobile phase consisted of a gradient of water (A) and acetonitrile/water 95:5 v/v (B), both containing 1 mM ammonium formate. The flow rate was maintained at 400 μL/min, and the gradient profile was as follows: t0-1.0min: […] A = 70%; and t5.1-9.0min: A = 70%. […] The injection volume was 20 μL, and the column temperature was maintained at 25°C for positive ion mode and at 35°C for negative ion mode. Data acquisition was performed with the MS Workstation by Analyst software, version 1.4.2 (ABSciex). Quantification was performed in Multiple Reaction Monitoring (MRM) mode, maintaining the dwell time at 300 and 400 ms for the positive and negative ion modes, respectively. […]

[2] = Initial screening of bioavailability: 60 mL of guaco syrup orally; format: in vivo, human; settings: 60 mL guaco syrup (17.6 mg COU, 1.1 mg OCA, 8.9 mg KAU), up to 600 min
Protocol: All the volunteers fasted for 8 h prior to the administration of guaco syrup and blood collection. […] The anticoagulant used was tetrasodium edetate. […] The pharmacokinetic analysis was performed using a non-compartmental model, considering an extravascular administration route and using WinNonlin Professional software, version 5.3. The relationships among the areas under the curves (r areas = AUC0-t/AUC0-inf), were used to confirm the suitability of the experimental design.

[3] = Stability in human plasma: short-term, freeze-thaw and long-term; format: in vitro ADME; settings: for Mean recovery: n = 8, ± SD
Protocol: The samples were vortexed for 2 min and then were kept at room temperature for 8 h. Afterward, the samples were spiked with 50 μL of IS solution and were vortexed (2 min) and submitted to the extraction procedures. The short-term stability was evaluated by comparing the mean recovery of the analytes and the IS obtained from stored samples with the mean values obtained with freshly prepared samples, at same concentration levels.
(§1) Freeze-thawed, post-preparative and long-term stability assay samples were prepared and evaluated similar to the short-term stability samples. However, the freeze thawing assay was assessed after undergoing three freeze-thaw cycles (one freeze-thaw cycle per day on three consecutive days) and post-preparative assay, maintaining the extracted samples for 24 hours in the Sample Manager (20°C, transparent vials). The long-term stability of human plasma stored at -40°C was assessed at the end of the study (60 days).

[4] = Post-preparative stability of extracted samples; format: physicochemical; settings: for Mean recovery: post-preparative: extracted samples 24 hours at 20°C, n = 8, ± SD; for RE: post-preparative
Protocol: as §1

[5] = both sexes, human, plasma, po, 1500 mg, human plasma, 60 mL guaco syrup spiked with 1500 mg coumarin, n = 5, mean ± S.D.
[6] = both sexes, human, plasma, po, 1500 mg, human plasma, 60 mL guaco syrup spiked with 1500 mg coumarin, n = 5, mean ± S.D., read-out: Cmax
[7] = both sexes, human plasma, oral, 60 mL guaco syrup spiked with 1500 mg coumarin, n = 5, mean ± S.D.
[8] = human plasma, oral, 60 mL guaco syrup spiked with 1500 mg coumarin, n = 5, mean ± S.D.
[9] = Long-term: plasma at -40°C, 60 days, high level (1250.0, 750.0, 750.0, 500.0 ng/mL)
[10] = Long-term: plasma at -40°C, 60 days, low level (50.0, 12.5, 25.0, 10.0 ng/mL)
[11] = Short-term: plasma at room temperature for 8 h, high level (1250.0, 750.0, 750.0, 500.0 ng/mL)
[12] = Short-term: plasma at room temperature for 8 h, low level (50.0, 12.5, 25.0, 10.0 ng/mL)
[13] = three freeze–thaw cycles, plasma, high level (1250.0, 750.0, 750.0, 500.0 ng/mL)
[14] = three freeze–thaw cycles, plasma, low level (50.0, 12.5, 25.0, 10.0 ng/mL)
[15] = high level (1250.0, 750.0, 750.0, 500.0 ng/mL)
[16] = low level (50.0, 12.5, 25.0, 10.0 ng/mL)

half-life [1, 5]	Cmax [1, 6]	AUC(0-inf) [1, 7]	AUC(0-t) [1, 7]	Tmax [1, 7]	r areas (AUC0-t/AUC0-inf) [1, 8]	plasma levels after guaco syrup without spiking [2]	Mean recovery [3, 9]	Mean recovery [3, 10]	RE ([3]; Long-term, low level)	Mean recovery [3, 11]	Mean recovery [3, 12]	RE ([3]; Short-term, high level)	RE ([3]; Short-term, low level)	RE ([3]; freeze–thaw cycles, high level)	RE ([3]; freeze–thaw cycles, low level)	Mean recovery [3, 13]	Mean recovery [3, 14]	Mean recovery [4, 15]	Mean recovery [4, 16]	SMILES	further results
~4 h	735 ng/mL	1460 ± 547 ng·h/mL	1340 ± 515 ng·h/mL	0.93 ± 0.57 h	0.92 ± 0.03	did not provide sufficient levels	1265.7 ± 99.2 ng/mL	45.1 ± 3.6 ng/mL	-9.71%	1205.5 ± 31.5 ng/mL	52.4 ± 1.7 ng/mL	-3.56%	4.81%	4.61%	7.62%	1307.7 ± 40.7 ng/mL	53.8 ± 2.7 ng/mL	1281.3 ± 44.2 ng/mL	47.6 ± 3.4 ng/mL	O=c1ccc2ccccc2o1 [COU, 1,2 benzopyrone]	clearance ([1]; both sexes, human, plasma, oral, 1500 mg, Cl/f multiplied by the bioavailability 0.034 of ref 32, read-out: estimated clearance (Cl = 1148.0 x 0.034) (converted)): 651 mL/min; Vd ([1]; both sexes, human, plasma, oral, 1500 mg, Vd/f multiplied by the bioavailability 0.034 of ref 32, read-out: estimated volume of distribution (Vd = 6733.0 x 0.034)): 229 L; Vd/F ([1]; both sexes, human plasma, oral, 60 mL guaco syrup spiked with 1500 mg coumarin, n = 5, mean ± S.D., read-out: Vd/f (apparent volume of distribution)): 6730 ± 3280 L; Cl/f (apparent clearance) [1, 8]: 1148.0 L/h and 1148.0 ± 411.0 L/h; Cmax [1, 8]: 735.46 ± 252.29 ng/mL; RE ([3]; Long-term, high level): 1.26%; RE ([4]; high level): 5.00%; RE ([4]; low level): -9.55%
~3 h	231 ± 187 ng/mL	518 ± 299 ng·h/mL	465 ± 299 ng·h/mL	1.45 ± 0.84 h	0.87 ± 0.08	did not provide sufficient levels	606.3 ± 26.8 ng/mL	22.5 ± 0.4 ng/mL	-10.20%	750.6 ± 29.0 ng/mL	25.2 ± 0.4 ng/mL	0.07%	0.79%	-2.79%	-8.32%	729.0 ± 41.7 ng/mL	22.9 ± 1.1 ng/mL	727.4 ± 34.5 ng/mL	22.7 ± 0.6 ng/mL	O=C(O)/C=C/c1ccccc1O [OCA, o-coumaric acid]	T1/2 [1, 8]: 3.50 ± 0.83 ^b h; RE ([4]; high level): -3.01%; RE ([4]; low level): -2.32%
~1 h	85 ± 40.1 ng/mL	134 ± 58 ng·h/mL	126 ± 54 ng·h/mL	1.4 ± 0.68 h	0.95 ± 0.05	did not provide sufficient levels	674.4 ± 69.7 ng/mL	11.7 ± 1.1 ng/mL	-6.19%	738.1 ± 8.4 ng/mL	11.7 ± 0.6 ng/mL	-1.59%	-6.24%	-4.69%	-7.29%	714.8 ± 24.9 ng/mL	11.6 ± 0.6 ng/mL	776.4 ± 18.7 ng/mL	11.5 ± 0.7 ng/mL	O=c1ccc2ccc(O)cc2o1 [7-HCOU, 7-hydroxycoumarin]	Kel (elimination rate constant) [1, 8]: 0.91 ± 0.59 h⁻¹; T1/2 [1, 8]: 1.16 ± 0.82 ^a h; RE ([3]; Long-term, high level): -10.08%; RE ([4]; high level): 3.52%; RE ([4]; low level): -7.73%
